Measurements: patent US6737383B1, “Herbicidal oxadiazolidines” (priority 1999, dated 2004)

Experiments:
bedstraw = test: Test B pre/postemergence bedstraw; assay type: in vivo, Galium aparine; settings: Postemergence
Procedure, shortened: (§1)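 Test chemicals in a non-phytotoxic solvent mixture with surfactant were sprayed preemergence onto planted seeds and postemergence onto plants 2 to 18 cm tall (1- to 4-leaf stage). After twelve to sixteen days in a greenhouse, injury was visually rated against untreated controls from 0 (no effect) to 10 (complete control).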

blackgrass = test: Test B pre/postemergence blackgrass; assay type: in vivo, Alopecurus myosuroides; settings: for Blackgrass plant response rating: scale of 0 to 10 where 0 is no effect and 10 is complete control
Procedure, shortened: as §1

surinam grass = test: Test B pre/postemergence surinam grass; assay type: in vivo, Brachiaria decumbens; settings: for B. signalgrass plant response rating: scale of 0 to 10 where 0 is no effect and 10 is complete control
Procedure, shortened: as §1

cocklebur = test: Test B pre/postemergence cocklebur; assay type: in vivo, Xanthium strumarium; settings: for Cocklebur plant response rating: scale of 0 to 10 where 0 is no effect and 10 is complete control
Procedure, shortened: as §1

corn = test: Test B pre/postemergence corn; assay type: in vivo, Zea mays; settings: for Corn plant response rating: scale of 0 to 10 where 0 is no effect and 10 is complete control
Procedure, shortened: as §1

giant foxtail = test: Test B pre/postemergence giant foxtail; assay type: in vivo, Setaria faberii; settings: for Giant foxtail plant response rating: scale of 0 to 10 where 0 is no effect and 10 is complete control
Procedure, shortened: as §1

morningglory = test: Test B pre/postemergence morningglory; assay type: in vivo, Ipomoea hederacea; settings: for Morningglory plant response rating: scale of 0 to 10 where 0 is no effect and 10 is complete control
Procedure, shortened: as §1

pigweed = test: Test B pre/postemergence pigweed; assay type: in vivo, Amaranthus retroflexus; settings: for Redroot pigweed plant response rating: scale of 0 to 10 where 0 is no effect and 10 is complete control
Procedure, shortened: as §1

rape = test: Test B pre/postemergence rape; assay type: in vivo, Brassica napus; settings: for Rape plant response rating: scale of 0 to 10 where 0 is no effect and 10 is complete control
Procedure, shortened: as §1

sugar beet = test: Test B pre/postemergence sugar beet; assay type: in vivo, Beta vulgaris; settings: for Sugarbeets plant response rating: scale of 0 to 10 where 0 is no effect and 10 is complete control
Procedure, shortened: as §1

velvetleaf = test: Test B pre/postemergence velvetleaf; assay type: in vivo, Abutilon theophrasti; settings: for Velvetleaf plant response rating: scale of 0 to 10 where 0 is no effect and 10 is complete control
Procedure, shortened: as §1

purple nutsedge = test: Test B pre/postemergence purple nutsedge; assay type: in vivo, Cyperus rotundus; settings: for Nutsedge plant response rating: scale of 0 to 10 where 0 is no effect and 10 is complete control
Procedure, shortened: as §1

rice = test: Test B flood test rice; assay type: in vivo, Oryza sativa
Procedure, shortened: (§2)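 Each value is a visual injury score relative to controls, with 10 meaning complete control and 0 no effect. Evaluation took place twelve to sixteen days after the 2-leaf-stage plants were treated and kept in the greenhouse.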

duck salad = test: Test B flood test duck salad; assay type: in vivo, Heteranthera limosa
Procedure, shortened: as §2

bamyardgrass = test: Test B flood test barnyardgrass; assay type: in vivo, Echinochloa crus-galli
Procedure, shortened: as §2

[1] = Postemergence, Rate 125 g/ha, scale 0 to 10, 0 is no effect, 10 is complete control
[2] = Postemergence, Rate 250 g/ha, scale 0 to 10, 0 is no effect, 10 is complete control
[3] = Preemergence, Rate 62 g/ha, scale 0 to 10 (0 no effect, 10 complete control)
[4] = Rate 500 g/ha, Postemergence, scale 0 to 10, 0 no effect, 10 complete control
[5] = Rate 62 g/ha, flood test species, Pre-emergence, visual evaluation after twelve to sixteen days
[6] = Rate 125 g/ha, under heading Pre-emergence, flood test species, visual evaluation after twelve to sixteen days
[7] = Rate 250 g/ha, Pre-emergence, flood-test species, scale 0 to 10, 0 is no effect, 10 is complete control
[8] = Rate 500 g/ha, Pre-emergence, flood test species, scale 0 to 10 (0 no effect, 10 complete control)

Structure (SMILES): CC(C)N(C(=O)n1oc(=O)n(N2C(C)CCCC2C)c1=O)c1ccc(F)cc1 (centres unmarked) [Compound 382]
- Plant response rating, Bedstraw (bedstraw; Rate 250 g/ha, scale 0 to 10, 0 is no effect, 10 is complete control): 4
- Plant response rating, Bedstraw (bedstraw; Rate 500 g/ha, scale 0 to 10, 0 no effect, 10 complete control): 4
- Plant response rating, Blackgrass (blackgrass; [1]): 0
- Plant response rating, Blackgrass (blackgrass; [2]): 2
- Plant response rating, Blackgrass (blackgrass; [3]): 0
- Blackgrass plant response rating (0 to 10 scale) (blackgrass; Preemergence, Rate 125 g/ha): 1
- Blackgrass plant response rating (blackgrass; Preemergence, Rate 250 g/ha): 3
- Blackgrass plant response rating (blackgrass; Preemergence, Rate 500 g/ha): 7
- Blackgrass plant response rating (blackgrass; Rate 62 g/ha, Postemergence): 0
- Plant response rating, Blackgrass (blackgrass; [4]): 2
- Plant response rating, B. signalgrass (surinam grass; [1]): 0
- Plant response rating, B. signalgrass (surinam grass; [2]): 0
- Plant response rating, B. signalgrass (surinam grass; [3]): 0
- B. signalgrass plant response rating (0 to 10 scale, 0 is no effect, 10 is complete control) (surinam grass; Preemergence, Rate 125 g/ha): 0
- B. signalgrass plant response rating (surinam grass; Preemergence, Rate 250 g/ha): 2
- B. signalgrass plant response rating (surinam grass; Preemergence, Rate 500 g/ha): 6
- B. signalgrass plant response rating (surinam grass; Rate 62 g/ha, Postemergence): 0
- Plant response rating, B. signalgrass (surinam grass; [4]): 0
- Plant response rating, Cocklebur (cocklebur; [1]): 0
- Plant response rating, Cocklebur (cocklebur; [2]): 0
- Plant response rating, Cocklebur (cocklebur; [3]): 0
- Cocklebur plant response rating (0 to 10 scale) (cocklebur; Preemergence, Rate 125 g/ha): 0
- Cocklebur plant response rating (cocklebur; Preemergence, Rate 250 g/ha): 0
- Cocklebur plant response rating (cocklebur; Rate 62 g/ha, Postemergence): 0
- Plant response rating, Cocklebur (cocklebur; [4]): 0
- Plant response rating, Corn (corn; [1]): 0
- Plant response rating, Corn (corn; [2]): 0
- Plant response rating, Corn (corn; [3]): 0
- Corn plant response rating (0 to 10 scale) (corn; Preemergence, Rate 125 g/ha): 0
- Corn plant response rating (corn; Preemergence, Rate 250 g/ha): 0
- Corn plant response rating (corn; Preemergence, Rate 500 g/ha): 2
- Corn plant response rating (corn; Rate 62 g/ha, Postemergence): 0
- Plant response rating, Corn (corn; [4]): 0
- Plant response rating, Giant foxtail (giant foxtail; [1]): 3
- Plant response rating, Giant foxtail (giant foxtail; [2]): 3
- Plant response rating, Giant foxtail (giant foxtail; [3]): 9
- Giant foxtail plant response rating (0 to 10 scale) (giant foxtail; Preemergence, Rate 125 g/ha): 9
- Giant foxtail plant response rating (giant foxtail; Preemergence, Rate 250 g/ha): 9
- Giant foxtail plant response rating (giant foxtail; Preemergence, Rate 500 g/ha): 10
- Giant foxtail plant response rating (giant foxtail; Rate 62 g/ha, Postemergence): 0
- Plant response rating, Giant foxtail (giant foxtail; [4]): 4
- Plant response rating, Morningglory (morningglory; [1]): 0
- Plant response rating, Morningglory (morningglory; [2]): 0
- Plant response rating, Morningglory (morningglory; [3]): 0
- Morningglory plant response rating (0 to 10 scale) (morningglory; Preemergence, Rate 125 g/ha): 0
- Morningglory plant response rating (morningglory; Preemergence, Rate 250 g/ha): 0
- Morningglory plant response rating (morningglory; Preemergence, Rate 500 g/ha): 0
- Morningglory plant response rating (morningglory; Rate 62 g/ha, Postemergence): 0
- Plant response rating, Morningglory (morningglory; [4]): 0
- Plant response rating, Redroot pigweed (pigweed; [1]): 0
- Plant response rating, Redroot pigweed (pigweed; [2]): 0
- Plant response rating, Redroot pigweed (pigweed; [3]): 0
- Redroot pigweed plant response rating (0 to 10 scale) (pigweed; Preemergence, Rate 125 g/ha): 0
- Redroot pigweed plant response rating (pigweed; Preemergence, Rate 250 g/ha): 0
- Redroot pigweed plant response rating (pigweed; Preemergence, Rate 500 g/ha): 0
- Redroot pigweed plant response rating (pigweed; Rate 62 g/ha, Postemergence): 0
- Plant response rating, Redroot pigweed (pigweed; [4]): 0
- Plant response rating, Rape (rape; [1]): 0
- Plant response rating, Rape (rape; [2]): 0
- Plant response rating, Rape (rape; [3]): 0
- Rape plant response rating (0 to 10 scale) (rape; Preemergence, Rate 125 g/ha): 0
- Rape plant response rating (rape; Preemergence, Rate 250 g/ha): 0
- Rape plant response rating (rape; Preemergence, Rate 500 g/ha): 0
- Rape plant response rating (rape; Rate 62 g/ha, Postemergence): 0
- Plant response rating, Rape (rape; [4]): 0
- Plant response rating, Sugarbeets (sugar beet; [1]): 0
- Plant response rating, Sugarbeets (sugar beet; [2]): 0
- Plant response rating, Sugarbeets (sugar beet; [3]): 0
- Sugarbeets plant response rating (0 to 10 scale) (sugar beet; Preemergence, Rate 125 g/ha): 0
- Sugarbeets plant response rating (sugar beet; Preemergence, Rate 250 g/ha): 0
- Sugarbeets plant response rating (sugar beet; Preemergence, Rate 500 g/ha): 0
- Sugarbeets plant response rating (sugar beet; Rate 62 g/ha, Postemergence): 0
- Plant response rating, Sugarbeets (sugar beet; [4]): 0
- Plant response rating, Velvetleaf (velvetleaf; [1]): 0
- Plant response rating, Velvetleaf (velvetleaf; [2]): 0
- Plant response rating, Velvetleaf (velvetleaf; [3]): 0
- Velvetleaf plant response rating (0 to 10 scale) (velvetleaf; Preemergence, Rate 125 g/ha): 0
- Velvetleaf plant response rating (velvetleaf; Preemergence, Rate 250 g/ha): 0
- Velvetleaf plant response rating (velvetleaf; Preemergence, Rate 500 g/ha): 0
- Velvetleaf plant response rating (velvetleaf; Rate 62 g/ha, Postemergence): 0
- Plant response rating, Velvetleaf (velvetleaf; [4]): 0
- Plant response rating, Nutsedge (purple nutsedge; [1]): 0
- Plant response rating, Nutsedge (purple nutsedge; [2]): 0
- Plant response rating, Nutsedge (purple nutsedge; [3]): 0
- Nutsedge plant response rating (0 to 10 scale) (purple nutsedge; Preemergence, Rate 125 g/ha): 0
- Nutsedge plant response rating (purple nutsedge; Preemergence, Rate 250 g/ha): 0
- Nutsedge plant response rating (purple nutsedge; Preemergence, Rate 500 g/ha): 0
- Nutsedge plant response rating (purple nutsedge; Rate 62 g/ha, Postemergence): 0
- Plant response rating, Nutsedge (purple nutsedge; [4]): 0
- Plant response rating, Rice (0 to 10 scale, 0 is no effect, 10 is complete control) (rice; [5]): 0
- Rice plant response rating (0 to 10 scale, 0 is no effect, 10 is complete control) (rice; [6]): 0
- Rice plant response rating (rice; [7]): 0
- Rice plant response rating (rice; [8]): 0
- Plant response rating, Ducksalad (0 to 10 scale, 0 is no effect, 10 is complete control) (duck salad; [5]): 0
- Ducksalad plant response rating (0 to 10 scale, 0 is no effect, 10 is complete control) (duck salad; [6]): 0
- Ducksalad plant response rating (duck salad; [7]): 0
- Ducksalad plant response rating (duck salad; [8]): 0
- Plant response rating, Barnyardgrass (0 to 10 scale, 0 is no effect, 10 is complete control) (bamyardgrass; [5]): 0
- Barnyardgrass plant response rating (0 to 10 scale, 0 is no effect, 10 is complete control) (bamyardgrass; [6]): 0
- Barnyardgrass plant response rating (bamyardgrass; [7]): 0
- Barnyardgrass plant response rating (bamyardgrass; [8]): 0
